Test results from patent US20070249670A1, “Glycogen Phosphorylase Inhibitor Compounds and Pharmaceutical Compositions Thereof” (SMITHKLINE BEECHAM CORPORATION, priority 2004, published 2007).

Target: T1, human liver glycogen phosphorylase a (HLGPa) (Homo sapiens, UniProt P06737)
T1 construct: creating a full-length cDNA fused at the 5′ end to codons for methionine-glycine-alanine-histidine; 6xHis tag (leader Met-Gly-Ala-His6-Gly-Gly) (N); made in house; host or cells: E. coli (bacterial expression plasmid pTXK1007LTev)
T1 sequence (P06737 2-847 limits assumed): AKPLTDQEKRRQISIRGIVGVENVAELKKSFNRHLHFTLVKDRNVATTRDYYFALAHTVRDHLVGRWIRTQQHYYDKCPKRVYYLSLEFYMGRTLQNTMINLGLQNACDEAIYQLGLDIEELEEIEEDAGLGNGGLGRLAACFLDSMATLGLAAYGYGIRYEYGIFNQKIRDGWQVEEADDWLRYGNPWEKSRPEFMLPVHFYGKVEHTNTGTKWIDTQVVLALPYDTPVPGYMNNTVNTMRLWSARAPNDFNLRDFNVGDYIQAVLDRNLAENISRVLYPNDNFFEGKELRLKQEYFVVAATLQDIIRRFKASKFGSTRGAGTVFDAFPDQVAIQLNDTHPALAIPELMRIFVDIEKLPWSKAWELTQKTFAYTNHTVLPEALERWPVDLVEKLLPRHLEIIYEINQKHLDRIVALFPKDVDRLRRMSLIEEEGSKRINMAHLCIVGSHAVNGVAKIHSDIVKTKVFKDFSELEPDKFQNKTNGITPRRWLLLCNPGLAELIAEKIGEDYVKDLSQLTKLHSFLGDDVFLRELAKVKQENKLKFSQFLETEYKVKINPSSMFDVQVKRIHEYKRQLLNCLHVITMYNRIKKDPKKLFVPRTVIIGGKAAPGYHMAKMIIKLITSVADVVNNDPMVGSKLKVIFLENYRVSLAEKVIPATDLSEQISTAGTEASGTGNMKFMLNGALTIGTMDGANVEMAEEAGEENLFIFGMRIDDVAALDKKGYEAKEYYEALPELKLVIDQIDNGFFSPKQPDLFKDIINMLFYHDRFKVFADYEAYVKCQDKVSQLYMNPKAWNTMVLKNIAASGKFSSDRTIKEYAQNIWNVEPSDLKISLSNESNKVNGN
Experiment: Human liver glycogen phosphorylase a enzymatic activity assay (coupled, fluorescent resorufin readout, with and without 10 mM glucose)
Type: biochemical
Settings: human liver glycogen phosphorylase a; table does not say whether with or without 10 mM glucose

Row | IC50 [µM] | Compound
1 | 0.02 | COc1ccc(-c2ccc(C(=O)N[C@H](C(=O)O)C3CCCCC3)c(NC(=O)Nc3c(C)cc(C)cc3C)c2)cc1F [Example 237, (2S)-Cyclohexyl({[3′-fluoro-4′-(methyloxy)-3-({[(2,4,6-trimethylphenyl)amino]carbonyl}amino)-4-biphenylyl]carbonyl}amino)ethanoic acid]
2 | 0.01 | COc1ccc(-c2ccc(C(=O)NC3(C(=O)O)CCCCCCC3)c(NC(=O)Nc3c(C)cc(C)cc3C)c2)cc1F [Example 238, 1-({[3′-Fluoro-4′-(methyloxy)-3-({[(2,4,6-trimethylphenyl)amino]carbonyl}amino)-4-biphenylyl]carbonyl}amino)cyclooctanecarboxylic acid]
3 | 2.38 | COc1ccc(NC(=O)Nc2cc3ccccc3cc2C(=O)N[C@H](C(=O)O)C2CCCCC2)c(OC)c1 [Example 239, (2S)-[({3-[({[2,4-bis(methyloxy)phenyl]amino}carbonyl)amino]-2-naphthalenyl}carbonyl)amino](cyclohexyl)ethanoic acid]
4 | 8.18 | O=C(Nc1cc(C(F)(F)F)cc(C(F)(F)F)c1)Nc1cc2ccccc2cc1C(=O)N[C@H](C(=O)O)C1CCCCC1 [Example 240, (2S)-[({3-[({[3,5-bis(trifluoromethyl)phenyl]amino}carbonyl)amino]-2-naphthalenyl}carbonyl)amino](cyclohexyl)ethanoic acid]
5 | 3.61 | Cc1cccc(C)c1NC(=O)Nc1cc2ccccc2cc1C(=O)N(CC(=O)O)Cc1ccccn1 [Example 241, N-{[3-({[(2,6-dimethylphenyl)amino]carbonyl}amino)-2-naphthalenyl]carbonyl}-N-(2-pyridinylmethyl)glycine]
6 | 2.86 | O=C(O)CN(Cc1ccccn1)C(=O)c1cc2ccccc2cc1NC(=O)Nc1c(Cl)cc(Cl)cc1Cl [Example 242, N-(2-pyridinylmethyl)-N-{[3-({[(2,4,6-trichlorophenyl)amino]carbonyl}amino)-2-naphthalenyl]carbonyl}glycine]
7 | 1.77 | Cc1cccc(C)c1NC(=O)Nc1cc2ccccc2cc1C(=O)N(CC(=O)O)CC1CCCCC1 [Example 243, N-(cyclohexylmethyl)-N-{[3-({[(2,6-dimethylphenyl)amino]carbonyl}amino)-2-naphthalenyl]carbonyl}glycine]
8 | 0.97 | Cc1cccc(C)c1NC(=O)Nc1cc2ccccc2cc1C(=O)N(CC(=O)O)C1CCCC1 [Example 244, N-cyclopentyl-N-{[3-({[(2,6-dimethylphenyl)amino]carbonyl}amino)-2-naphthalenyl]carbonyl}glycine]
9 | 2.13 | Cc1cccc(C)c1NC(=O)Nc1cc2ccccc2cc1C(=O)N(CC(=O)O)C1CCCCC1 [Example 245, N-cyclohexyl-N-{[3-({[(2,6-dimethylphenyl)amino]carbonyl}amino)-2-naphthalenyl]carbonyl}glycine]
10 | 2.12 | Cc1cccc(C)c1NC(=O)Nc1cc2ccccc2cc1C(=O)N(CC(=O)O)CC(=O)O [Example 246, 2,2′-({[3-({[(2,6-dimethylphenyl)amino]carbonyl}amino)-2-naphthalenyl]carbonyl}imino)diacetic acid]
11 | 10.4 | CCCCc1ccc(NC(=O)Nc2cc3ccccc3cc2C(=O)N[C@H](C(=O)O)C2CCCCC2)cc1 [Example 247, (2S)-({[3-({[(4-butylphenyl)amino]carbonyl}amino)-2-naphthalenyl]carbonyl}amino)(cyclohexyl)ethanoic acid]
12 | 15.1 | O=C(Nc1ccc2c(c1)CCO2)Nc1cc2ccccc2cc1C(=O)N[C@H](C(=O)O)C1CCCCC1 [Example 248, (2S)-cyclohexyl{[(3-{[(2,3-dihydro-1-benzofuran-5-ylamino)carbonyl]amino}-2-naphthalenyl)carbonyl]amino}ethanoic acid]
13 | 17.4 | Cc1onc(-c2ccccc2)c1NC(=O)Nc1cc2ccccc2cc1C(=O)N[C@H](C(=O)O)C1CCCCC1 [Example 249, (2S)-cyclohexyl({[3-({[(5-methyl-3-phenyl-4-isoxazolyl)amino]carbonyl}amino)-2-naphthalenyl]carbonyl}amino)ethanoic acid]
14 | 7.77 | C[C@@H](C(=O)O)N(Cc1ccccc1)C(=O)c1cc2ccccc2cc1NC(=O)Nc1c(Cl)cccc1Cl [Example 250, N-{[3-({[(2,6-dichlorophenyl)amino]carbonyl}amino)-2-naphthalenyl]carbonyl}-N-(phenylmethyl)-L-alanine]
15 | 12.2 | O=C(Nc1cc2ccccc2cc1C(=O)N(Cc1ccccc1)[C@@H](Cc1ccccc1)C(=O)O)Nc1c(Cl)cccc1Cl [Example 251, N-{[3-({[(2,6-dichlorophenyl)amino]carbonyl}amino)-2-naphthalenyl]carbonyl}-N-(phenylmethyl)phenylalanine]
16 | 0.65 | CCCCN(CC(=O)O)C(=O)c1cc2ccccc2cc1NC(=O)Nc1c(Cl)cccc1Cl [Example 252, N-butyl-N-{[3-({[(2,6-dichlorophenyl)amino]carbonyl}amino)-2-naphthalenyl]carbonyl}glycine]
17 | 0.81 | Cc1cc(C)c(NC(=O)Nc2cc3ccccc3cc2C(=O)N2CCN(C(=O)OC(C)(C)C)C[C@H]2C(=O)O)c(C)c1 [Example 254, (2S)-4-{[(1,1-dimethylethyl)oxy]carbonyl}-1-{[3-({[(2,4,6-trimethylphenyl)amino]carbonyl}amino)-2-naphthalenyl]carbonyl}-2-piperazinecarboxylic acid]
18 | 2.6 | O=C(Nc1cc2ccccc2cc1C(=O)N[C@H](C(=O)O)C1CCCCC1)c1ccc(-c2ccc(Cl)cc2Cl)o1 [Example 255, (2S)-cyclohexyl({[3-({[5-(2,4-dichlorophenyl)-2-furanyl]carbonyl}amino)-2-naphthalenyl]carbonyl}amino)ethanoic acid]
19 | 17.4 | Cc1cc(C)c(NC(=O)Nc2cc3ccccc3cc2C(=O)N2CCN(S(C)(=O)=O)C[C@H]2C(=O)O)c(C)c1 [Example 256, (2S)-4-(methylsulfonyl)-1-{[3-({[(2,4,6-trimethylphenyl)amino]carbonyl}amino)-2-naphthalenyl]carbonyl}-2-piperazinecarboxylic acid]
20 | 18.4 | Cc1cc(C)c(NC(=O)Nc2cc3ccccc3cc2C(=O)N2CCCC[C@H]2C(=O)O)c(C)c1 [Example 257, (2S)-1-{[3-({[(2,4,6-trimethylphenyl)amino]carbonyl}amino)-2-naphthalenyl]carbonyl}-2-piperidinecarboxylic acid]
21 | 3.46 | Cc1cc(C)c(NC(=O)Nc2cc3ccccc3cc2C(=O)O)c(C)c1 [Example 263, 3-({[(2,4,6-trimethylphenyl)amino]carbonyl}amino)-2-naphthalenecarboxylic acid]
22 | 0.12 | Cc1cc(C)c(NC(=O)Nc2cc3ccccc3cc2C(=O)NC(CCC(C)CC(C)(C)C)C(=O)O)c(C)c1 (stereo not shown) [Example 264, 5,7,7-trimethyl-2-({[3-({[(2,4,6-trimethylphenyl)amino]carbonyl}amino)-2-naphthalenyl]carbonyl}amino)octanoic acid]
23 | 0.05 | Cc1cc(C)c(CC(=O)Nc2cc3ccccc3cc2C(=O)N[C@H](C(=O)O)[C@@H](C)OC(C)(C)C)c(C)c1 [Example 268, O-(1,1-dimethylethyl)-N-[(3-{[(2,4,6-trimethylphenyl)acetyl]amino}-2-naphthalenyl)carbonyl]-L-threonine]
24 | 0.21 | Cc1cc(C)c(NC(=O)Nc2cc3ccccc3cc2C(=O)N[C@@](C)(CC(C)C)C(=O)O)c(C)c1 [Example 269, 2-methyl-N-{[3-({[(2,4,6-trimethylphenyl)amino]carbonyl}amino)-2-naphthalenyl]carbonyl}leucine]
25 | 10.3 | Cc1cc(C)c(-c2ccc(C(=O)Nc3cc4ccccc4cc3C(=O)N[C@H](C(=O)O)C3CCCCC3)o2)c(C)c1 [Example 270, (2S)-cyclohexyl({[3-({[5-(2,4,6-trimethylphenyl)-2-furanyl]carbonyl}amino)-2-naphthalenyl]carbonyl}amino)ethanoic acid]
26 | 0.038 | COCCOC[C@H](NC(=O)c1cc2ccccc2cc1NC(=O)Nc1c(C)cc(C)cc1C)C(=O)O [Example 272, O-[2-(methyloxy)ethyl]-N-{[3-({[(2,4,6-trimethylphenyl)amino]carbonyl}amino)-2-naphthalenyl]carbonyl}-L-serine]
27 | 0.045 | Cc1cc(C)c(NC(=O)Nc2cc3ccccc3cc2C(=O)N[C@@H](COC2CCOCC2)C(=O)O)c(C)c1 [Example 276, O-(tetrahydro-2H-pyran-4-yl)-N-{[3-({[(2,4,6-trimethylphenyl)amino]carbonyl}amino)-2-naphthalenyl]carbonyl}-L-serine]
28 | 3 | O=C(Nc1cc2ccccc2cc1C(=O)NC1(C(=O)O)CCCC1)Nc1c(Cl)cc(Cl)cc1Cl [Example 279, 1-({[3-({[(2,4,6-Trichlorophenyl)amino]carbonyl}amino)-2-naphthalenyl]carbonyl}amino)cyclopentanecarboxylic acid]
